ChEMBL document CHEMBL1135759, “Exploring the role of bromine at C(10) of (+)-4-[2-[4-(8-chloro-3,10-dibromo- 6,11-dihydro-5H-benzo[5,6]cyclohepta[1,2-b]pyridin-11(R)-yl)-1-piperidinyl]-2- oxoethyl]-1-piperidinecarboxamide (Sch-66336): the discovery of indolocycloheptapyridine inhibitors of farnesyl protein transferase” (J Med Chem, 2002)

What follows are compounds tested against Protein farnesyltransferase (Homo sapiens, UniProt P49354+P49356) (assay: Inhibition of Protein farnesyltransferase in an enzyme assay with His6-H-Ras-CVLS).

SMILES	IC50 [nM]
Cc1cn(C)c2c(Cl)cc3c(c12)C(C1CCN(C(=O)Cc2cc[n+]([O-])cc2)CC1)c1ncccc1CC3 (single isomer, unassigned; (+))	> 190
CCCc1c[nH]c2c(Cl)cc3c(c12)[C@@H](C1CCN(C(=O)Cc2cc[n+]([O-])cc2)CC1)c1ncccc1CC3 (stereo in doubt; (+)-10b)	65
CCCCc1c[nH]c2c(Cl)cc3c(c12)[C@@H](C1CCN(C(=O)Cc2cc[n+]([O-])cc2)CC1)c1ncccc1CC3 (stereo in doubt; (+)-10c)	69
CCCc1c[nH]c2c(Cl)cc3c(c12)[C@@H](C1CCN(C(=O)Cc2cc[n+]([O-])cc2)CC1)c1ncccc1CC3 (stereo in doubt; (-)-10b)	> 190
CCCCc1c[nH]c2c(Cl)cc3c(c12)[C@@H](C1CCN(C(=O)Cc2cc[n+]([O-])cc2)CC1)c1ncccc1CC3 (stereo in doubt; (-)-10c)	> 180

Compounds with a lower IC50, results first:

IC50 [nM]	SMILES
42	O=C(Cc1cc[n+]([O-])cc1)N1CCC(C2c3ncccc3CCc3cc(Cl)c4[nH]ccc4c32)CC1 (single isomer, unassigned; (+))
34	O=C(Cc1cc[n+]([O-])cc1)N1CCC([C@@H]2c3ccc(Cl)cc3CCc3cc(Br)cnc32)CC1
28	Cc1c[nH]c2c(Cl)cc3c(c12)[C@@H](C1CCN(C(=O)Cc2cc[n+]([O-])cc2)CC1)c1ncccc1CC3 (stereo in doubt; (-)-10a)
19	O=C(Cc1cc[n+]([O-])cc1)N1CCC([C@H]2c3ncccc3CCc3cc(Cl)cc(Br)c32)CC1
7.4	Cc1c[nH]c2c(Cl)cc3c(c12)[C@@H](C1CCN(C(=O)Cc2cc[n+]([O-])cc2)CC1)c1ncccc1CC3 (stereo in doubt; (+)-10a)
2.6	Cc1c[nH]c2c(Cl)cc3c(c12)[C@@H](C1CCN(C(=O)Cc2cc[n+]([O-])cc2)CC1)c1ncc(Br)cc1CC3
